Data as given in ChEMBL document CHEMBL5120922, “Discovery, Optimization, and Evaluation of Potent and Selective PI3Kδ-γ Dual Inhibitors for the Treatment of B-cell Malignancies” (J Med Chem, 2022).
Activity calls are given as the source filed them. The rule behind the calls is not given here.

Columns and labels:
[1] = tested on: SU-DHL-6; assay: Antitumor activity against human SU-DHL-6 cells xenografted in NOD/SCID mouse assessed as reduction in tumor volume at 10 mg/kg, po measured every 2 days in presence of ibrutinib; type: functional, organism-based; settings: time 2.0 day
[2] = Tmax in Sprague-Dawley rat at 10 mg/kg, po measured upto 24 hrs by LC-MS/MS analysis; type: ADME, organism-based; settings: in vivo
[3] = Clearance in Sprague-Dawley rat at 5 mg/kg, iv measured upto 24 hrs by LC-MS/MS analysis; type: ADME, organism-based; settings: in vivo
[4] = tested on: SU-DHL-6; assay: Induction of apoptosis in human SU-DHL-6 cells assessed as viable cells at 1.5 uM incubated for 48 hrs by annexin V-FITC and PI staining based flow cytometry analysis (reference value: 87.0 %); type: functional; settings: read-out: Activity
[5] = Volume of distribution at steady state in Sprague-Dawley rat at 2 mg/kg, iv measured upto 24 hrs by LC-MS/MS analysis; type: ADME, organism-based; settings: in vivo, read-out: Vdss
[6] = tested on: SU-DHL-6; assay: Antitumor activity against human SU-DHL-6 cells xenografted in NOD/SCID mouse assessed as tumor growth inhibition at 10 mg/kg, po measured every 2 days in presence of ibrutinib; type: functional; settings: SU-DHL-6, 48 h, time 2 day, read-out: TGI
[7] = tested on: SU-DHL-6; assay: Induction of cell cycle arrest in human SU-DHL-6 cells assessed as accumulation of cells at G0/G1 phase at 0.5 uM incubated for 24 hrs in presence of ibrutinib by PI staining based FACScan flow cytometry analysis (reference value: 55.61 %); type: functional
[8] = tested on: DOHH-2; assay: Induction of apoptosis in human DOHH-2 cells assessed as viable cells at 2 uM incubated for 48 hrs in presence of ibrutinib by annexin V-FITC and PI staining based flow cytometry analysis (reference value: 95.4 %); type: functional; settings: read-out: Activity
[9] = tested on: DOHH-2; assay: Induction of apoptosis in human DOHH-2 cells assessed as necrotic cells at 2 uM incubated for 48 hrs in presence of ibrutinib by annexin V-FITC and PI staining based flow cytometry analysis (Rvb =0.29 %); type: functional
[10] = tested on: DOHH-2; assay: Induction of cell cycle arrest in human DOHH-2 cells assessed as accumulation of cells at S phase at 0.5 uM incubated for 24 hrs in presence of ibrutinib by PI staining based flow cytometry analysis (reference value: 55.11 %); type: functional
[11] = tested on: DOHH-2; assay: Induction of apoptosis in human DOHH-2 cells assessed as early apoptotic cells at 2 uM incubated for 48 hrs in presence of ibrutinib by annexin V-FITC and PI staining based flow cytometry analysis (reference value: 2.09 %); type: functional
[12] = organism: Homo sapiens; assay: Selectivity ratio of IC50 for N-terminal His6-tagged recombinant full length human PI3Kalpha expressed in baculovirus infected Sf21 insect cells to IC50 for N-terminal His6-tagged recombinant full length human PI3Kgamma expressed in baculovirus infected Sf21 insect cells
[13] = tested on: DOHH-2; assay: Induction of cell cycle arrest in human DOHH-2 cells assessed as accumulation of cells at G0/G1 phase at 0.5 uM incubated for 24 hrs by PI staining based flow cytometry analysis (reference value: 23.47 %); type: functional
[14] = biological target: T1, Phosphatidylinositol 4,5-bisphosphate 3-kinase catalytic subunit delta isoform (Homo sapiens, UniProt O00329); assay: Inhibition of N-terminal His6-tagged recombinant full length human PI3Kdelta expressed in baculovirus infected Sf21 insect cells incubated for 30 mins by HTRF assay
T1 sequence (O00329 whole entry): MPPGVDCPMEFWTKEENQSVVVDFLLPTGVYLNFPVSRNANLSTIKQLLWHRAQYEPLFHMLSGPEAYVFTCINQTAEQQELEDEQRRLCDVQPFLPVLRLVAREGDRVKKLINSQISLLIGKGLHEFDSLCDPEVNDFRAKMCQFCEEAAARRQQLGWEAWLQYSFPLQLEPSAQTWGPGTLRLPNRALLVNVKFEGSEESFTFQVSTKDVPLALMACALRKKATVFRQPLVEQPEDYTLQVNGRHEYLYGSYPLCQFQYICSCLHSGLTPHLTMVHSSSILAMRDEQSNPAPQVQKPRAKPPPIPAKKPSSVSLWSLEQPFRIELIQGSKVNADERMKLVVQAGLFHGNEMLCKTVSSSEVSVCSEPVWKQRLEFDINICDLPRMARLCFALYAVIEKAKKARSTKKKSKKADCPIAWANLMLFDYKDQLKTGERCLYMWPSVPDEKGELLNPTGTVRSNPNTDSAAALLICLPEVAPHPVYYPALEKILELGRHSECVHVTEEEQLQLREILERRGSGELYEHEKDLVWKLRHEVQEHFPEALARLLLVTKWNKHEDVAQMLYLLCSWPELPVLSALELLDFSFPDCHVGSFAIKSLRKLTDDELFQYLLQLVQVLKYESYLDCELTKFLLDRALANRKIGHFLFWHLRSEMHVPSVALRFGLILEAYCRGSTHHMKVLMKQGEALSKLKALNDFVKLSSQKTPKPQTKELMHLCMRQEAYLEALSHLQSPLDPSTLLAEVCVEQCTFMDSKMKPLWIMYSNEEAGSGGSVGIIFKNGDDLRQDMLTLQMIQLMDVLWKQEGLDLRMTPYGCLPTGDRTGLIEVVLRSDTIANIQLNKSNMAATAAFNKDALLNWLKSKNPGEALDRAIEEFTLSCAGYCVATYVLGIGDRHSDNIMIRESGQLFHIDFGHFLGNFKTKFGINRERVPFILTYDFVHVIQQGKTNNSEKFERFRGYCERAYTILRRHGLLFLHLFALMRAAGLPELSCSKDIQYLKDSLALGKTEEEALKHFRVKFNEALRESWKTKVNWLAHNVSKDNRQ

[15] = tested on: DOHH-2; assay: Induction of apoptosis in human DOHH-2 cells assessed as late apoptotic cells at 2 uM incubated for 48 hrs by annexin V-FITC and PI staining based flow cytometry analysis (reference value: 2.20 %); type: functional
[16] = AUC(0 to t) in Sprague-Dawley rat at 2 mg/kg, iv measured upto 24 hrs by LC-MS/MS analysis; type: ADME, organism-based; set-up: time < 24 hrs, dose 2 mg/kg, route iv; settings: in vivo
[17] = tested on: SU-DHL-6; assay: Induction of apoptosis in human SU-DHL-6 cells assessed as early apoptotic cells at 1.5 uM incubated for 48 hrs in presence of ibrutinib by annexin V-FITC and PI staining based flow cytometry analysis (reference value: 8.81 %); type: functional
[18] = tested on: DOHH-2; assay: Induction of apoptosis in human DOHH-2 cells assessed as late apoptotic cells at 2 uM incubated for 48 hrs in presence of ibrutinib by annexin V-FITC and PI staining based flow cytometry analysis (reference value: 2.20 %); type: functional
[19] = Oral bioavailability in Sprague-Dawley rat at 10 mg/kg measured upto 24 hrs by LC-MS/MS analysis; type: ADME, organism-based; settings: in vivo
[20] = Toxicity in human SU-DHL-6 cells xenografted in NOD/SCID mouse at 10 mg/kg, po measured every 2 days in presence of ibrutinib; type: organism-based; settings: in vivo, 48 h, time 2 day
[21] = tested on: SU-DHL-6; assay: Induction of apoptosis in human SU-DHL-6 cells assessed as late apoptotic cells at 1.5 uM incubated for 48 hrs in presence of ibrutinib by annexin V-FITC and PI staining based flow cytometry analysis (reference value: 3.88 %); type: functional

For C[C@H]1CC[C@@H](c2nc3cccc(Cl)c3c(=O)n2-c2cccnc2)N1c1nc(N)nc(N)c1C#N, the Activity [1] was “Active”, the Tmax [2] was 49.8 min and the clearance [3] was 12.5 mL/min/kg. It also gave a viability at 1.5 µM [4] of 74.7%, a Vd [5] of 1.66 L/kg and an inhibition in vivo at 10 mg/kg [6] of no more than 81.4%. It also gave an Activity [7] of 79.73%, a viability at 2 µM [8] of 23.5% and an Activity [9] of 1.88%. For the same compound, the Activity [10] was 32.92%, the Activity [11] was 48.9% and the Ratio IC50 [12] was 794. The Activity [13] was 36.44%, the IC50 [14] was 1000 nM and the Activity [15] was 17.6%. The AUC(0-t) at 24 h [16] was 1150 ng·h/mL, the Activity [17] was 34.5% and the Activity [18] was 25.8%. The bioavailability [19] was 57%, the Activity [20] was “Non-Toxic” and the Activity [21] was 18.1%.
